{"source": "paper PMC3819144", "about": "(Biochemical pharmacology, 2013)", "origin": "cited, not measured here", "key": {"[1]": {"test_system": "CXCR7", "conditions": "requires relatively high concentrations"}, "[2]": {"test_system": "CXCR7"}}}
{"smiles": "c1cc(CN2CCCNCCNCCCNCC2)ccc1CN1CCCNCCNCCCNCC1", "note": "[AMD3100]", "values": [{"measurement": "effect on binding of CXCL12 to CXCR7", "setting": "[1]", "result": "enhance binding of CXCL12 to CXCR7"}, {"measurement": "CXCR7 signaling through β-arrestin 2 / recruitment of β-arrestin 2", "setting": "[2]", "result": "modestly activate CXCR7 signaling through β-arrestin 2"}]}
